Results from PubChem BioAssay AID1549 (Sanford-Burnham Center for Chemical Genomics, 2009).
Calls of active or inactive are those of the source. No rule for the calls is given here.

biological target: Influenza A virus M2 proton channel (A/TW/4845/1999 H1N1); assay: NMR binding screen, influenza A virus M2 proton channel, Kd (AID 1549); conditions: M2 protein

Structure (SMILES)	Kd
Cc1cccc(OCc2nnc(N)s2)c1	> 4 mM (inactive)
COc1cc2c(c(OC)c1OC)-c1ccc(OC)c(=O)cc1[C@@H](NC(C)=O)CC2	> 4 mM (inactive)
O=C(Nc1cccnc1)c1cccs1	> 4 mM (inactive)
CN(C)CCNC(CC(=O)Nc1ccccc1)C(=O)O (centres undefined)	> 4 mM (inactive)
O=C(CN1CCOCC1)Nc1cccc(Br)c1	> 4 mM (inactive)
O=C(O)c1cccc2c1OCC2	> 4 mM (inactive)
Cc1ccc(-n2[nH]c(C)cc2=O)cc1	> 4 mM (inactive)
CCOc1ccc(-c2c(=O)n(O)c3ccccc3[n+]2[O-])cc1	> 4 mM (inactive)
O=C(O)c1ccc(-c2ccccn2)s1	> 4 mM (inactive)
O=S(=O)(c1cccc(Cl)c1)N1CCCC1	> 4 mM (inactive)
NS(=O)(=O)c1ccc(N=Cc2cccs2)cc1	> 4 mM (inactive)
Nc1nc(-c2ccc(Cl)cc2)nn1C(=O)c1cccnc1	> 4 mM (inactive)
CNC(=O)n1ccc(C(=O)N2CCCCC2)n1	> 4 mM (inactive)
Cn1ncc2c(=O)n(CC(=O)c3ccccc3)cnc21	> 4 mM (inactive)
CC(=O)NCC1(c2ccccc2)CCOCC1	> 4 mM (inactive)
OC1CC(c2ccccc2)NC2(CCCC2)C1 (centres undefined)	> 4 mM (inactive)
Cc1cccc(N2C(=O)CC(=O)NC2=O)c1	> 4 mM (inactive)
CCOC(=O)c1cnc2n(c1=O)CCS2	> 4 mM (inactive)
O=C1CSC(=O)N1CN1CCOCC1	> 4 mM (inactive)
CN(C)S(=O)(=O)N1CCc2ccccc21	> 4 mM (inactive)

Structure (SMILES)	Kd
O=C1Nc2ccccc2C1C1(O)C(=O)Nc2ccc(F)cc21 (centres undefined)	> 4 mM (inactive)
CN1CCC(NC(=S)NC2CC2)CC1	> 4 mM (inactive)
COC[C@]12CN(C=O)C3[C@@H]4[C@H](OC)C1[C@]3(C1CC3(O)C(OC)C(O)C4(OC(C)=O)C1C3OC(=O)c1ccccc1)[C@@H](OC)C[C@H]2O (some centres undefined)	> 4 mM (inactive)
CCC(=O)Nc1ccc(-c2nn3c(C)nnc3s2)cc1	> 4 mM (inactive)
Cc1nc2ccccc2c(=O)n1NC(=O)C1CCCCC1	> 4 mM (inactive)
CC(=O)O[C@H]1C[C@@]2(C)[C@@H](C[C@@H](O)C3[C@]2(C)CC[C@H]2[C@H](C)[C@H](O)CC[C@]32C)/C1=C(/CCC=C(C)C)C(=O)O (some centres undefined)	> 4 mM (inactive)
Cn1c(O)c(/C=C2\C=CC=N2)c(=O)[nH]c1=O	> 4 mM (inactive)
O=C(Nc1ccc2ccccc2c1)c1cnccn1	> 4 mM (inactive)
Nc1ccc2c(C(F)(F)F)cc(=O)oc2c1	> 4 mM (inactive)
CC(=O)Oc1c(C)c(C)c2c(c1C)CCC(C)(CCCC(C)CCCC(C)CCCC(C)C)O2 (centres undefined)	> 4 mM (inactive)
COCCn1cnc2cc(C)c(C)cc21	> 4 mM (inactive)
Nc1cccc(C(=O)c2ccccc2)c1	> 4 mM (inactive)
O=C1c2ccccc2C(=O)c2c1ccc(O)c2O	> 4 mM (inactive)
Nc1cccc(NC(=O)c2ccco2)c1	> 4 mM (inactive)
Nc1cc(=O)[nH]c(=O)n1-c1ccccc1	> 4 mM (inactive)
Cn1c(C(=O)O)ccc1S(N)(=O)=O	> 4 mM (inactive)
Cc1occc1C(=O)Nc1nnc(C(F)(F)F)s1	> 4 mM (inactive)
CC1(C)N([O-])c2cc([N+](=O)[O-])ccc2[N+]1=O	> 4 mM (inactive)
CC(=O)Nc1ccc(CN2CCOCC2)cc1	> 4 mM (inactive)
Cc1ccccc1NC(=O)C1CC(=O)N=C(N)S1 (centres undefined)	> 4 mM (inactive)

Structure (SMILES)	Kd
O=C1NC(=Nc2ccccc2)S/C1=C/c1cccnc1	> 4 mM (inactive)
CC(=O)N1CCN(c2ccc(N)cc2)CC1	> 4 mM (inactive)
CC(C)=CCc1c(O)cc(C)oc1=O	> 4 mM (inactive)
NC(=O)CS(=O)(=O)c1ccc2ccccc2c1	> 4 mM (inactive)
CC(=O)Nc1ccc2c(c1)n(C)c(=O)n2C	> 4 mM (inactive)
CC(=O)OC1CCC2(C)C(=CC=C3C2CCC2(C)C3CCC2C(C)/C=C/C(C)C(C)C)C1(C)C (centres undefined)	> 4 mM (inactive)
COc1ccc2c(c1)OCc1c-2oc2cc(OC)ccc12	> 4 mM (inactive)
NC(=O)CSc1nc2ccccc2[nH]1	> 4 mM (inactive)
CC(=O)Nc1ccc2c(c1)C(=O)N(C1CCCCC1)C2=O	> 4 mM (inactive)
O=C(O)CC[N+](=O)[O-]	> 4 mM (inactive)
O=C1CC(=O)N(c2ccccc2)C(=O)N1	> 4 mM (inactive)
Oc1cccc2[nH]ccc12	> 4 mM (inactive)
Nc1ccc(-n2cccn2)cc1	> 4 mM (inactive)
CS(=O)(=O)c1ccccc1C(=O)Nc1nccs1	> 4 mM (inactive)
c1coc(-c2nc(-c3ccncc3)no2)c1	> 4 mM (inactive)
NC(=O)C1(c2ccccc2)CCOCC1	> 4 mM (inactive)
OCc1ccc2c(c1)OCCCO2	> 4 mM (inactive)
O=C1c2ccncc2C(=O)N1CNc1ccccn1	> 4 mM (inactive)
Cc1nnc(N2CCN(c3ccccc3)CC2)[nH]c1=O	> 4 mM (inactive)
